Reference: patent US10533003B2, “Polyheteroarl histone deacetylase inhibitors and their use in therapy” (Karus Therapeutics Limited, priority 2014, dated 2020)

Columns and labels:
Human HDAC1 = biological target: T1, Human HDAC1 (Homo sapiens, UniProt Q13547); assay: Biochemical HDAC inhibition assay, acetylated AMC-labeled peptide substrate, HDAC1; settings: 2 hours at 30° C., read-out: IC50 (nM) HDAC 1
T1 construct: full length with C-terminal His-tag and C-terminal FLAG-tag; His-tag (C); FLAG-tag (C); host or cells: baculovirus expression system
T1 sequence (Q13547 whole entry): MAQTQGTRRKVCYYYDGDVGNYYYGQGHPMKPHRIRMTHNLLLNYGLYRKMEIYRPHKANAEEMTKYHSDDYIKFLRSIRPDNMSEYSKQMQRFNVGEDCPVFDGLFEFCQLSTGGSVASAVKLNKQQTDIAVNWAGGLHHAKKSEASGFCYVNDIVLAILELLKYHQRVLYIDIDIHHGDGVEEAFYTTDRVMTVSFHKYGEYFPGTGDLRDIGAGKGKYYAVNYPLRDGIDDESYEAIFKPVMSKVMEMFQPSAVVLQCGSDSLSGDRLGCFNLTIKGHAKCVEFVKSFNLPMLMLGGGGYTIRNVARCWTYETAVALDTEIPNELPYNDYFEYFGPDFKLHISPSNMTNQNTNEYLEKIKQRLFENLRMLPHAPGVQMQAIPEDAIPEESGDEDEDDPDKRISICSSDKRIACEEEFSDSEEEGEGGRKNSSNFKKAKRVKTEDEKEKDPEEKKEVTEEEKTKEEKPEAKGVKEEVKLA
Description: (§1) Activity against all zinc-dependent HDACs 1 to 11 was assessed by using an acetylated AMC-labeled peptide substrate. The substrate RHKKAc was used for all class I and IIb HDACs; for HDAC8, the substrate used was RHKAcKAc. Activity against the class IIa HDACs (HDAC4, 5, 7, 9) was determined using a class IIa-specific substrate, Acetyl-Lys(trifluoroacetyl)-AMC (Lahm et al, 2007, PNAS, 104, 17335-17340). All assays were based on the AMC-labeled substrate and developer combination.
(§2) The protocol involved a two-step reaction: first, the substrate with the acetylated lysine side chain is incubated with a sample containing HDAC activity, to produce the deacetylated products, which are then digested in the second step by the addition of developer to produce the fluorescent signal proportional to the amount of deacetylated substrates.
Human HDAC1 (GenBank Accession No. NM_004964), full length with C-terminal His-tag and C-terminal FLAG-tag, MW=56 kDa, expressed in baculovirus expression system.
(§3) Assay Buffer: 50 mM Tris-HCl, pH8.0, 137 mM NaCl, 2.7 mM KCl, 1 mM MgCl2. Before use, 1 mg/mL BSA and DMSO are added.
HDAC1: 2.68 nM HDAC1 and 50 m M HDAC substrate are in the reaction buffer with 1% DMSO final. Incubate for 2 hours at 30° C.
(§4) Stage 1: Deacetylation of substrate by incubation of HDAC enzymes with corn pounds
(§5) Stage 2: Development by addition of Developer to digest the deacetylated substrate, and generate the fluorescent colour; Detection: 360/460 Ex/Em

Recombinant human HDAC6 = biological target: T2, Recombinant human HDAC6 (Homo sapiens, UniProt Q9UBN7); assay: Biochemical HDAC inhibition assay, acetylated AMC-labeled peptide substrate, HDAC6; settings: 2 hours at 30° C., read-out: IC50 (nM) HDAC 6
T2 construct: full length, MW=180 kDa, was expressed by baculovirus in Sf9 insect cells; GST (N); host or cells: Sf9 insect cells (baculovirus)
T2 sequence (Q9UBN7 1-1215): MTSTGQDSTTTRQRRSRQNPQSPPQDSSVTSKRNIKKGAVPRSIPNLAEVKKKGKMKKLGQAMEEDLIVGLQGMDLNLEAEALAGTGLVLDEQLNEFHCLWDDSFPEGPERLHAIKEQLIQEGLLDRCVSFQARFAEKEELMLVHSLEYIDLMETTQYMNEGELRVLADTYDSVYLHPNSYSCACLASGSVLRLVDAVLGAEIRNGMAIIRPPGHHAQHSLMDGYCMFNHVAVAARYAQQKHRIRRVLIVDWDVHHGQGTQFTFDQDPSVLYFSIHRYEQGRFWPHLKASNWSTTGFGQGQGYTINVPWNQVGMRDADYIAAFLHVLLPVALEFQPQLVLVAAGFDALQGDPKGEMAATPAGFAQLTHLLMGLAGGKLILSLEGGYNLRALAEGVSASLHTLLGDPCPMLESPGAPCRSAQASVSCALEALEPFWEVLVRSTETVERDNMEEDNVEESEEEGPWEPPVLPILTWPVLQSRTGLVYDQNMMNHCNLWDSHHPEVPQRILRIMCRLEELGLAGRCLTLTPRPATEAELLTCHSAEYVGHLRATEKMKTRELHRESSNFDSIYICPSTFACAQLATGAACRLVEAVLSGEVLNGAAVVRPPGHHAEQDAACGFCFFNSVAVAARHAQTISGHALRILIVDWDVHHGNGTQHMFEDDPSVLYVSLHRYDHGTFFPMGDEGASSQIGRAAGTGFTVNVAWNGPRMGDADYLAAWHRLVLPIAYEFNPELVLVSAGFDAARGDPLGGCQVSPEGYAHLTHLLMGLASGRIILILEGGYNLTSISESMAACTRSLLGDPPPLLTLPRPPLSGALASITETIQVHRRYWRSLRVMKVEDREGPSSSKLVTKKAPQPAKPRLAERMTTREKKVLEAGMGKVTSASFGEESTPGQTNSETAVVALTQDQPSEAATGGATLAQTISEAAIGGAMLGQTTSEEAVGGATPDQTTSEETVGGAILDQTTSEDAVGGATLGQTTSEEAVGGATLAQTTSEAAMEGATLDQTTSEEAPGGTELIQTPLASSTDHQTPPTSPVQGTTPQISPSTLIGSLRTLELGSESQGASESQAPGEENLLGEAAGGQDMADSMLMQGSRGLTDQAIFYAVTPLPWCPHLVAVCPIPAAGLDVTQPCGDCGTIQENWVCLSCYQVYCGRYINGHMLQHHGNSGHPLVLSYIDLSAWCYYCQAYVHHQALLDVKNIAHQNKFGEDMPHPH
Description: as §1, §2
Recombinant human HDAC6 (GenBank Accession No. BC069243), full length, MW=180 kDa, was expressed by baculovirus in Sf9 insect cells using an N-terminal GST tag.
as §3
HDAC6: 0.56 nM HDAC6 and […] HDAC substrate are in the reaction buffer with 1% DMSO final. Incubate for 2 hours at 30° C.
as §4, §5

Compound	IC50 (Human HDAC1)	IC50 (Recombinant human HDAC6)
O=C(NO)c1ccc(CN(c2cnccn2)c2cc(-c3cnc4[nH]ccc4c3)ccn2)cc1 [Example B, N-Hydroxy-4-{[(pyrazin-2-yl)(4-{1H-pyrrolo[2,3-b]pyridin-5-yl}pyridin-2-yl)amino]methyl}benzamide]	1000 to 10000 nM	≤ 500 nM
O=C(NO)c1ccc(CN(c2cnccn2)c2cc(-c3cn[nH]c3)ccn2)cc1 [Example D, N-Hydroxy-4-{[(pyrazin-2-yl)[4-(1H-pyrazol-4-yl)pyridin-2-yl]amino]methyl}benzamide]	1000 to 10000 nM	≤ 500 nM
O=C(NO)c1ccc(CN(c2cnccn2)c2cc(-c3ccoc3)ccn2)cc1 [Example E, 4-({[4-(Furan-3-yl)pyridin-2-yl](pyrazin-2-yl)amino}methyl)-N-hydroxybenzamide]	500 to 1000 nM	≤ 500 nM
Cc1cc(-c2ccnc(N(Cc3ccc(C(=O)NO)cc3)c3cnccn3)c2)c(C)o1 [Example F, 4-({[4-(2,5-Dimethylfuran-3-yl)pyridin-2-yl](pyrazin-2-yl)amino}methyl)-N-hydroxybenzamide]	1000 to 10000 nM	≤ 500 nM
O=C(NO)c1ccc(CN(c2cnccn2)c2cc(-c3c[nH]nc3C(F)(F)F)ccn2)cc1 [Example G, N-Hydroxy-4-{[(pyrazin-2-yl)({4-[3-(trifluoromethyl)-1H-pyrazol-4-yl]pyridin-2-yl})amino]methyl}benzamide]	1000 to 10000 nM	≤ 500 nM
Cc1n[nH]cc1-c1ccnc(N(Cc2ccc(C(=O)NO)cc2)c2cnccn2)c1 [Example I, N-Hydroxy-4-({[4-(3-methyl-1H-pyrazol-4-yl)pyridin-2-yl](pyrazin-2-yl)amino}methyl)benzamide]	≥ 10000 nM	≤ 500 nM
O=C(NO)c1ccc(CN(c2cnccn2)c2cc(-c3c[nH]c4ncccc34)ccn2)cc1 [Example K, N-Hydroxy-4-{[(pyrazin-2-yl)(4-{1H-pyrrolo[2,3-b]pyridin-3-yl}pyridin-2-yl)amino]methyl}benzamide]	1000 to 10000 nM	≤ 500 nM
O=C(NO)c1ccc(CN(c2cnccn2)c2cc(-c3cc[nH]n3)ccn2)cc1 [Example L, N-Hydroxy-4-{[(pyrazin-2-yl)[4-(1H-pyrazol-3-yl)pyridin-2-yl]amino]methyl}benzamide]	1000 to 10000 nM	≤ 500 nM
Nc1ncc(-c2ccnc(N(Cc3ccc(C(=O)NO)cc3)c3cnccn3)c2)cc1F [Example M, 4-({[4-(6-Amino-5-fluoropyridin-3-yl)pyridin-2-yl](pyrazin-2-yl)amino}methyl)-N-hydroxybenzamide]	1000 to 10000 nM	≤ 500 nM
CC(=O)Nc1ccc(-c2ccnc(N(Cc3ccc(C(=O)NO)cc3F)c3cnccn3)c2)cn1 [Example R, 4-({[4-(6-Acetamidopyridin-3-yl)pyridin-2-yl](pyrazin-2-yl)amino}methyl)-3-fluoro-N-hydroxybenzamide]	1000 to 10000 nM	≤ 500 nM
CC(=O)Nc1cc(-c2ccnc(N(Cc3ccc(C(=O)NO)cc3F)c3cnccn3)c2)ccn1 [Example S, 4-({[4-(2-Acetamidopyridin-4-yl)pyridin-2-yl](pyrazin-2-yl)amino}methyl)-3-fluoro-N-hydroxybenzamide]	1000 to 10000 nM	≤ 500 nM
CS(=O)(=O)Nc1cc(-c2ccnc(N(Cc3ccc(C(=O)NO)cc3F)c3cnccn3)c2)ccn1 [Example U, 3-Fluoro-N-hydroxy-4-({[4-(2-methanesulfonamidopyridin-4-yl)pyridin-2-yl](pyrazin-2-yl)amino}methyl)benzamide]	≥ 10000 nM	≤ 500 nM

More lines, now with the values ahead:

IC50 (Human HDAC1)	IC50 (Recombinant human HDAC6)	Compound
1000 to 10000 nM	≤ 500 nM	Nc1ncc(-c2ccnc(N(Cc3ccc(C(=O)NO)cc3)c3cnccn3)c2)cn1 [Example A, 4-({[4-(2-Aminopyrimidin-5-yl)pyridin-2-yl](pyrazin-2-yl)amino}methyl)-N-hydroxybenzamide]
500 to 1000 nM	≤ 500 nM	O=C(NO)c1ccc(CN(c2cnccn2)c2cc(-c3ccc4[nH]ccc4c3)ccn2)cc1 [Example C, N-Hydroxy-4-({[4-(1H-indol-5-yl)pyridin-2-yl](pyrazin-2-yl)amino}methyl)benzamide]
≥ 10000 nM	≤ 500 nM	Cc1noc(C)c1-c1ccnc(N(Cc2ccc(C(=O)NO)cc2)c2cnccn2)c1 [Example H, 4-({[4-(Dimethyl-1,2-oxazol-4-yl)pyridin-2-yl](pyrazin-2-yl)amino}methyl)-N-hydroxybenzamide]
1000 to 10000 nM	≤ 500 nM	Cc1n[nH]c(C)c1-c1ccnc(N(Cc2ccc(C(=O)NO)cc2)c2cnccn2)c1 [Example J, 4-({[4-(3,5-Dimethyl-1H-pyrazol-4-yl)pyridin-2-yl](pyrazin-2-yl)amino}methyl)-N-hydroxybenzamide]
1000 to 10000 nM	≤ 500 nM	CC(=O)Nc1ccc(-c2ccnc(N(Cc3ccc(C(=O)NO)cc3)c3cnccn3)c2)cn1 [Example N, 4-({[4-(6-Acetamidopyridin-3-yl)pyridin-2-yl](pyrazin-2-yl)amino}methyl)-N-hydroxybenzamide]
1000 to 10000 nM	≤ 500 nM	CC(=O)Nc1cc(-c2ccnc(N(Cc3ccc(C(=O)NO)cc3)c3cnccn3)c2)ccn1 [Example O, 4-({[4-(2-Acetamidopyridin-4-yl)pyridin-2-yl](pyrazin-2-yl)amino}methyl)-N-hydroxybenzamide]
500 to 1000 nM	≤ 500 nM	Nc1ccc(-c2ccnc(N(Cc3ccc(C(=O)NO)cc3F)c3cnccn3)c2)cn1 [Example P, 4-({[4-(6-Aminopyridin-3-yl)pyridin-2-yl](pyrazin-2-yl)amino}methyl)-3-fluoro-N-hydroxybenzamide]
1000 to 10000 nM	≤ 500 nM	Nc1cc(-c2ccnc(N(Cc3ccc(C(=O)NO)cc3F)c3cnccn3)c2)ccn1 [Example Q, 4-({[4-(2-Aminopyridin-4-yl)pyridin-2-yl](pyrazin-2-yl)amino}methyl)-3-fluoro-N-hydroxybenzamide]
≥ 10000 nM	≤ 500 nM	CS(=O)(=O)Nc1ccc(-c2ccnc(N(Cc3ccc(C(=O)NO)cc3F)c3cnccn3)c2)cn1 [Example T, 3-Fluoro-N-hydroxy-4-({[4-(6-methanesulfonamidopyridin-3-yl)pyridin-2-yl](pyrazin-2-yl)amino}methyl)benzamide]
